Experimental findings from US7803930B2, “Antisense modulation of apolipoprotein B-expression” (Isis Pharmaceuticals, Inc., priority 2002, dated 2010) are described below.

In the oligonucleotide strings, read from the 5' end, every base follows the letter of its sugar. An asterisk marks phosphorothioate; unmarked linkages are phosphodiester. Other units and linkages are bracketed, terminal groups are in braces. A string of capitals states the bases alone. e = 2'-O-(2-methoxyethyl) (MOE); [5mC] = 5-methylcytosine; d = 2'-deoxy (DNA)

The subject of the first data set is human apolipoprotein B mRNA. The data set is described as follows: Inhibition of human apolipoprotein B mRNA levels in HepG2 cells, quantitative real-time PCR. The class given is cell-based. As to conditions: HepG2 cells treated with 150 nM of compound; averages from two experiments; quantitative real-time PCR. A digest of the protocol: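 HepG2 cells at 80% confluency were transfected with antisense oligonucleotide using 3.75 μg/mL Lipofectin in Opti-MEM for 4-7 h and harvested 16-24 h after treatment. Apolipoprotein B mRNA was measured by real-time RT-PCR and normalized to GAPDH or RiboGreen total RNA. Percent inhibition came from untreated-control standard curves.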
On the technique in general: Real-time PCR tracks product formation cycle by cycle.
“301041 (eG*eA*eG*eT*eT*d[5mC]*dA*dG*dA*dG*dA*d[5mC]*d[5mC]*dT*dT*e[5mC]*e[5mC]*eG*eA*eG; antisense) [compound 301041]”: the “% INHIB (inhibition of human apolipoprotein B mRNA levels)” value came to 85%.

For the substance “281645 (eT*e[5mC]*eT*eG*e[5mC]*dA*d[5mC]*dT*dG*dA*dA*dG*dT*d[5mC]*dA*e[5mC]*eG*eG*eT*eG; antisense) [compound 281645]”, the “% INHIB (inhibition of human apolipoprotein B mRNA levels)” value was 78%.

Regarding “271008 (antisense e[5mC]*e[5mC]*e[5mC]*eG*eG*dT*d[5mC]*dA*dG*d[5mC]*dG*dG*dA*dT*dA*eG*eT*eA*eG*eG) [compound 271008]”, the “% INHIB (inhibition of human apolipoprotein B mRNA levels)” value stood at 37%.

As to “271050 (e[5mC]*e[5mC]*eT*eG*eG*dA*dG*d[5mC]*dA*dA*dG*d[5mC]*dT*dT*d[5mC]*eA*eT*eG*eT*eA; antisense) [compound 271050]”, the “% INHIB (inhibition of human apolipoprotein B mRNA levels)” value is 42%.

As for “271026 (eG*eA*e[5mC]*eT*e[5mC]*d[5mC]*dT*dT*d[5mC]*dA*dG*dA*dG*d[5mC]*d[5mC]*eA*eG*e[5mC]*eG*eG; antisense) [compound 271026]”, the “% INHIB (inhibition of human apolipoprotein B mRNA levels)” value was found to be 39%.

“301013 (e[5mC]*e[5mC]*e[5mC]*e[5mC]*eG*d[5mC]*dA*dG*dG*dT*d[5mC]*d[5mC]*d[5mC]*dG*dG*eT*eG*eG*eG*eA; antisense) [compound 301013]”: the “% INHIB (inhibition of human apolipoprotein B mRNA levels)” value is reported as 82%.

“281594 (eG*eA*eT*eG*eG*d[5mC]*dT*dT*d[5mC]*dT*dG*d[5mC]*d[5mC]*dA*d[5mC]*eA*eT*eG*e[5mC]*eT; antisense) [compound 281594]”: the “% INHIB (inhibition of human apolipoprotein B mRNA levels)” value was determined as 74%.

In the case of “301015 (e[5mC]*eA*eA*e[5mC]*e[5mC]*dG*dA*dG*dA*dA*dG*dG*dG*d[5mC]*dA*e[5mC]*eT*e[5mC]*eA*eG; antisense) [compound 301015]”, the “% INHIB (inhibition of human apolipoprotein B mRNA levels)” value was 53%.

For the substance “281586 (eT*eG*eG*eA*e[5mC]*dA*dG*dA*d[5mC]*d[5mC]*dA*dG*dG*d[5mC]*dT*eG*eA*e[5mC]*eA*eT; antisense) [compound 281586]”, the “% INHIB (inhibition of human apolipoprotein B mRNA levels)” value came out at 80%.

In the case of “301217 (antisense eA*eG*eA*e[5mC]*eT*d[5mC]*d[5mC]*dA*dT*dT*dT*dA*dT*dT*dT*eG*eT*eT*e[5mC]*e[5mC]) [compound 301217]”, the “% INHIB (inhibition of human apolipoprotein B mRNA levels)” value worked out at 81%.

On to “270990 (antisense e[5mC]*e[5mC]*e[5mC]*eT*e[5mC]*dT*dT*dG*dA*dT*dG*dT*dT*d[5mC]*dA*eG*eG*eA*eT*eG) [compound 270990]”, for which the “% INHIB (inhibition of human apolipoprotein B mRNA levels)” value was 42%.

In the case of “281588 (eT*e[5mC]*eT*eT*e[5mC]*dA*dG*dG*dA*dT*dG*dA*dA*dG*d[5mC]*eT*eG*e[5mC]*eA*eG; antisense) [compound 281588]”, the “% INHIB (inhibition of human apolipoprotein B mRNA levels)” value amounted to 80%.

As to “271014 (antisense e[5mC]*e[5mC]*e[5mC]*eA*eG*dA*dG*dA*dG*dG*d[5mC]*d[5mC]*dA*dA*dG*e[5mC]*eT*e[5mC]*eT*eG) [compound 271014]”, the “% INHIB (inhibition of human apolipoprotein B mRNA levels)” value is given as 54%.

As for “281615 (antisense eT*eA*eG*eA*eT*d[5mC]*dT*d[5mC]*dT*dG*dG*dA*dG*dG*dA*eT*eT*eT*eG*e[5mC]) [compound 281615]”, the “% INHIB (inhibition of human apolipoprotein B mRNA levels)” value is 81%.

As to “270988 (antisense eG*eG*eG*eT*eT*dG*dA*dA*dG*d[5mC]*d[5mC]*dA*dT*dA*d[5mC]*eA*e[5mC]*e[5mC]*eT*e[5mC]) [compound 270988]”, the “% INHIB (inhibition of human apolipoprotein B mRNA levels)” value is listed as 6%.

For “281593 (eT*eA*e[5mC]*eT*eG*dA*d[5mC]*dA*dG*dG*dA*d[5mC]*dT*dG*dG*e[5mC]*eT*eG*e[5mC]*eT; antisense) [compound 281593]”, the “% INHIB (inhibition of human apolipoprotein B mRNA levels)” value is on record as 93%.

With “281591 (eT*eG*e[5mC]*e[5mC]*eA*d[5mC]*dA*dT*dT*dG*d[5mC]*d[5mC]*d[5mC]*dT*dT*e[5mC]*e[5mC]*eT*e[5mC]*eG; antisense) [compound 281591]”, the “% INHIB (inhibition of human apolipoprotein B mRNA levels)” value stood at 90%.

Take “281612 (antisense e[5mC]*eA*eA*eG*eG*dT*d[5mC]*dA*dT*dA*d[5mC]*dT*d[5mC]*dT*dG*e[5mC]*e[5mC]*eG*eA*eT) [compound 281612]”: the “% INHIB (inhibition of human apolipoprotein B mRNA levels)” value was determined as 83%.

Consider “270995 (antisense eT*e[5mC]*e[5mC]*eT*e[5mC]*dT*dT*dA*dG*d[5mC]*dG*dT*d[5mC]*d[5mC]*dA*eG*eT*eG*eT*eG) [compound 270995]”, for which the “% INHIB (inhibition of human apolipoprotein B mRNA levels)” value was 40%.

For the substance “271031 (e[5mC]*eA*eG*eT*eG*dT*dG*dA*dT*dG*dA*d[5mC]*dA*d[5mC]*dT*eT*eG*eA*eT*eT; antisense) [compound 271031]”, the “% INHIB (inhibition of human apolipoprotein B mRNA levels)” value was 49%.

Staying with this data set, now noted: HepG2 cells; human apolipoprotein B mRNA; oligonucleotides targeting genomic sequence SEQ ID NO 334; averages from two experiments.
Take “301091 (antisense eG*eA*eG*eA*eT*dT*dG*dG*dA*dG*dA*d[5mC]*dG*dA*dG*e[5mC]*eA*eT*eT*eT) [compound 301091]”: the “% INHIB” value amounted to 35%.

As to “301213 (antisense eT*eA*eG*eA*eA*d[5mC]*d[5mC]*dA*dT*dG*dT*dT*dT*dG*dG*eT*e[5mC]*eT*eT*e[5mC]) [compound 301213]”, the “% INHIB” value was determined as 35%.

Turning to “301174 (antisense eG*eT*eG*e[5mC]*e[5mC]*dA*dT*dG*d[5mC]*dT*dA*dG*dG*dT*dG*eG*e[5mC]*e[5mC]*eA*eT) [compound 301174]”, the “% INHIB” value is listed as 37%.

As to “301106 (antisense eA*eA*eA*eG*eA*dA*dA*d[5mC]*dT*dA*dT*d[5mC]*d[5mC]*dT*dG*eT*eA*eT*eT*e[5mC]) [compound 301106]”, the “% INHIB” value was found to be 12%.

As to “301205 (antisense e[5mC]*eA*eA*eT*eT*d[5mC]*dA*dA*dT*dA*dA*dA*dA*dG*d[5mC]*eT*e[5mC]*e[5mC]*eA*eT) [compound 301205]”, the “% INHIB” value is reported as 31%.

Take “301059 (eA*eT*e[5mC]*eA*eG*dA*dG*d[5mC]*dA*d[5mC]*d[5mC]*dA*dA*dA*dG*eG*eG*eA*eA*eT; antisense) [compound 301059]”: the “% INHIB” value turned out to be 12%.

As to “301159 (eT*eG*e[5mC]*eT*eT*dT*dA*d[5mC]*d[5mC]*dT*dA*d[5mC]*d[5mC]*dT*dA*eG*e[5mC]*eT*eA*e[5mC]; antisense) [compound 301159]”, the “% INHIB” value turned out to be 36%.

With “301063 (eG*eT*e[5mC]*eA*e[5mC]*dA*dT*d[5mC]*d[5mC]*dG*dT*dG*d[5mC]*d[5mC]*dT*eG*eG*eT*eG*e[5mC]; antisense) [compound 301063]”, the “% INHIB” value is 41%.

As to “301078 (eT*eT*eT*eT*eA*dA*dA*dA*dT*dT*dA*dG*dA*d[5mC]*d[5mC]*e[5mC]*eA*eA*e[5mC]*e[5mC]; antisense) [compound 301078]”, the “% INHIB” value is 22%.

With “301208 (antisense eT*eG*eG*eT*eA*dT*dT*dT*dA*d[5mC]*d[5mC]*dT*dG*dA*dG*eG*eG*e[5mC]*eT*eG) [compound 301208]”, the “% INHIB” value stood at 21%.

For the substance “301152 (e[5mC]*eT*eG*eG*eA*dT*dA*dA*d[5mC]*dT*d[5mC]*dA*dG*dA*d[5mC]*e[5mC]*eT*eT*eT*eG; antisense) [compound 301152]”, the “% INHIB” value is recorded as 40%.

Turning to “301176 (antisense eT*e[5mC]*eT*eG*eG*dA*dG*dG*d[5mC]*dT*d[5mC]*dA*dG*dA*dA*eA*e[5mC]*eA*eT*eG) [compound 301176]”, the “% INHIB” value is on record as 57%.

On to “301088 (antisense eA*eT*eG*eT*eT*d[5mC]*dA*d[5mC]*dT*dG*dA*dG*dA*d[5mC]*dA*eG*eG*e[5mC]*eT*eG) [compound 301088]”, for which the “% INHIB” value amounted to 41%.

Consider “301110 (antisense e[5mC]*eT*eG*eG*eA*dG*dA*dG*d[5mC]*dA*d[5mC]*d[5mC]*dT*dG*d[5mC]*eA*eA*eT*eA*eG) [compound 301110]”, for which the “% INHIB” value is recorded as 35%.

Turning to “301050 (eA*eT*eT*eT*e[5mC]*d[5mC]*dT*d[5mC]*dT*dT*d[5mC]*dT*dG*dT*dA*eA*eG*eA*e[5mC]*eA; antisense) [compound 301050]”, the “% INHIB” value is given as 22%.

Staying with this data set, now noted: Table 1; HepG2 cells, 150 nM; averages from two experiments.
Consider “147796 (antisense eG*e[5mC]*eA*eG*e[5mC]*d[5mC]*dA*dG*dT*d[5mC]*dG*d[5mC]*dT*dT*dA*eT*e[5mC]*eT*e[5mC]*e[5mC]) [compound 147796]”, for which the “% INHIB” value is 8%.

With “147807 (antisense eG*eG*e[5mC]*eG*eT*dA*dG*dA*dG*dA*d[5mC]*d[5mC]*d[5mC]*dA*dT*e[5mC]*eA*e[5mC]*eA*eT) [compound 147807]”, the “% INHIB” value was determined as 25%.

As to “147789 (antisense eG*eG*eA*eA*eG*dA*dG*dG*dT*dG*dT*dT*dG*d[5mC]*dT*e[5mC]*e[5mC]*eT*eT*eG) [compound 147789]”, the “% INHIB” value was determined as 24%.

The data set is the same for the next values; noted with them: Table 11 gene walk; HepG2 cells, 50 nM; averages from two experiments.
For “308616 (eT*e[5mC]*e[5mC]*eT*eT*dT*dT*dA*dG*dG*dT*dT*dA*d[5mC]*d[5mC]*eA*eG*e[5mC]*e[5mC]*eA; antisense) [compound 308616]”, the “% INHIB 50 nm” value was determined as 39%.

Consider “308621 (eT*eT*eT*eG*eG*dT*dA*dG*dG*d[5mC]*dT*d[5mC]*d[5mC]*dT*dT*eT*eT*eA*eG*eG; antisense) [compound 308621]”, for which the “% INHIB 50 nm” value was found to be 56%.

In the case of “308620 (eT*eG*eG*eT*eA*dG*dG*d[5mC]*dT*d[5mC]*d[5mC]*dT*dT*dT*dT*eA*eG*eG*eT*eT; antisense) [compound 308620]”, the “% INHIB 50 nm” value is 69%.

Still in this data set, the particulars now being: Table 11 gene walk; HepG2 cells, 150 nM; averages from two experiments.
As to “308616 (eT*e[5mC]*e[5mC]*eT*eT*dT*dT*dA*dG*dG*dT*dT*dA*d[5mC]*d[5mC]*eA*eG*e[5mC]*e[5mC]*eA; antisense) [compound 308616]”, the “% INHIB 150 nm” value is reported as 81%.

Consider “308621 (eT*eT*eT*eG*eG*dT*dA*dG*dG*d[5mC]*dT*d[5mC]*d[5mC]*dT*dT*eT*eT*eA*eG*eG; antisense) [compound 308621]”, for which the “% INHIB 150 nm” value worked out at 91%.

Consider “308620 (eT*eG*eG*eT*eA*dG*dG*d[5mC]*dT*d[5mC]*d[5mC]*dT*dT*dT*dT*eA*eG*eG*eT*eT; antisense) [compound 308620]”, for which the “% INHIB 150 nm” value stood at 88%.

The same data set, now with this note: Table 15; HepG2 cells, 150 nM; averages from two experiments.
As to “301220 (antisense eA*eG*eA*eG*eG*dT*dT*dT*dT*dG*d[5mC]*dT*dG*dT*dG*e[5mC]*e[5mC]*eA*eG*eA) [compound 301220]”, the “% INHIB” value was found to be 51%.
